Test results taken from patent EP3027627B1, “2-[5-[N-(4-FLUOROPHENYL)CARBAMOYL]PYRIMIDIN-2-YLSULFANYLMETHYL]-4-(TRIFLUOROMETHOXY)PHENYL]BORONIC ACID” (Syntrix Biosystems Inc., priority 2013, dated 2015).

Legend:
CXCR1 [1] = molecular target: T1, CXCR1 (Homo sapiens, UniProt P25024); experiment: Wash-resistant inhibition of CXCL8-mediated calcium flux after inhibitor washout, CXCR1 RBL cells; type: cell-based; settings: RBL cells stably transfected with CXCR1; 30 minutes incubation at 37°C with 0.4, 2, 10 µM, then washout; time points up to 12 h
T1 construct: expressed in transfected cells; host or cells: RBL cells (stably transfected)
T1 sequence (P25024 1-350): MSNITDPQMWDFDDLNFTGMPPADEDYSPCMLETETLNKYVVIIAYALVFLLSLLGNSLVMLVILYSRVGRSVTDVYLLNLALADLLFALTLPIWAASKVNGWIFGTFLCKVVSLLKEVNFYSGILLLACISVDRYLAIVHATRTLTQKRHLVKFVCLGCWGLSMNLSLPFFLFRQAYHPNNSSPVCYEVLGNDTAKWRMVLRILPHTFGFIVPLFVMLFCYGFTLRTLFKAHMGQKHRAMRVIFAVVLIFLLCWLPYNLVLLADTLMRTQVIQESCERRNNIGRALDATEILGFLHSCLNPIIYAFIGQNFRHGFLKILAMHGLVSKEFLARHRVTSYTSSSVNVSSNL
Experimental: (§1) SX-682 contains a boronic acid moiety that has the potential to form a transient covalent linkage with hydroxyl-bearing amino acid side chains in the binding site of its protein target.
(§2) In order to test this hypothesis, RBL cells (10^7 cells/mL) stably transfected with either CXCR1 or CXCR2 were (1) incubated with SX-682 at various concentrations for 30 minutes at 37°C, (2) washed and resuspended in assay buffer (RPMI/2% serum) at room temperature, and (3) assayed for CXCL8-mediated calcium response at time points up to 12 h after inhibitor washout. The concentrations of SX-682 tested were 0 (positive control), 0 (negative control), 0.4, 2, and 10 µM. At 30 minutes before each time point, a 56.25 µL aliquot of the cells were removed and loaded for 30 minutes at room temperature in the dark with FLIPR-3 reagent (262.5 µl per tube). Following FLIPR-3 incubation, cells were assayed for CXCL8 mediated intracellular calcium release as described in Pharmacology Example 1.

CXCR2 [2] = molecular target: T2, CXCR2 (Homo sapiens, UniProt P25025); experiment: Inhibition of CXCL8-mediated intracellular calcium release, RBL cells stably transfected with CXCR2; type: cell-based; settings: CXCL8 25 nM, mean ± SE, n = 4
T2 construct: expressed in transfected cells; host or cells: RBL cells (stably transfected)
T2 sequence (P25025 1-360): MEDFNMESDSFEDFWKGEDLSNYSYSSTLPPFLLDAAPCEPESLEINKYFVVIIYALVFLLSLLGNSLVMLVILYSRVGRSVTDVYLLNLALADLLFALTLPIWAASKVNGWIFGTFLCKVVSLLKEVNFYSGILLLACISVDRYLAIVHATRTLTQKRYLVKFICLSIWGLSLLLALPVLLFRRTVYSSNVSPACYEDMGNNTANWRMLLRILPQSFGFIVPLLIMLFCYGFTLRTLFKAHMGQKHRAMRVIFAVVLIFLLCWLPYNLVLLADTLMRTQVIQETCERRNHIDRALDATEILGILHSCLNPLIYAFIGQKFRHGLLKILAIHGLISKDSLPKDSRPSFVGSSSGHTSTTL
Experimental: (§3) Briefly, cells (either isolated human neutrophils or RBL cells stably transfected with either CXCR1 or CXCR2) were suspended in HBSS^- (without Ca^2+ and Mg^2+) containing 10 mM HEPES and FLIPR Calcium 3 dye (3.1 x 10^7 cells in total volume 1.7 mL). Cells were aliquoted (200 µL of the cell suspension per tube, 8 tubes total) and 2 µL of the designated compound (with appropriate dilutions) were added to each of 6 tubes. As controls, 2 µL of DMSO (1% final concentration) were added to 2 other tubes. Cells were incubated for 30 min at 37 °C. After dye loading, tubes were centrifuged at 6,000 rpm for 1 min, supernatant was removed and the cell pellet was re-suspended in 200 µL of HBSS^+ (with Ca^2+ and Mg^2+) containing 10 mM HEPES. […] The cell suspension was aliquoted into a 96-well Reading Plate (Coming) in a volume of 90 µL (10^5 cells/well). […] After 15 sec of reading the basal level of fluorescence by FlexStation II, 10 µL of CXCL8 or HBSS^-were automatically transferred from the Compound Plate into the Reading Plate (final concentration of CXCL8 was 25 nM). Changes in fluorescence were monitored (λex = 485 nm, λem = 525 nm) every 5 s for 240 to 500 s at room temperature.
(§4) The maximum change in fluorescence, expressed in arbitrary units over baseline (Max-Min), was used to determine the CXCL8 response. […]

neutrophils [3] = experiment: Ozone rat model of pulmonary inflammation (neutrophil influx into BALF); type: in vivo, Sprague-Dawley rats; settings: for influx of neutrophils into the lungs (BALF) as compared to control rats treated with vehicle only: 1 mg/kg intravenously once at t = 0, 1 ppm ozone for 4 hours, BALF at t = 24 hours, n = 4 per cohort
Experimental: SX-682 was assayed in an in vivo rat model of pulmonary inflammation. Activity in this model of pulmonary inflammation provides evidence that supports the use of SX-682 in the treatment of a number of pulmonary inflammatory diseases, including chronic obstructive pulmonary disease (COPD) and bronchopulmonary dysplasia (BPD). In this experiment, Sprague-Dawley rats (n = 4 per cohort) were dosed intravenously only once at t = 0 with either vehicle control (dimethylformamide/PEG400/saline, 40:40:20), positive inhibitor control (SX-576, 1 mg/kg) or the test compound (SX-682, 1 mg/kg). The rats were then placed in air (negative exposure group; vehicle control only) or 1 ppm ozone (positive exposure group; vehicle control, positive inhibitor control SX-576, and test compound SX-682) for 4 hours. The rats were then sacrificed at t = 24 hours, and the bronchoalveolar lavage fluid (BALF) was collected. The cells were spun down, stained with Wright-Giemsa and counted. In the negative exposure group, no neutrophils were observed when stained. In the ozone exposed rats treated with vehicle however, there was a brisk influx of neutrophils of approximately 14,000 per mL of BALF (see Figure 4).

CXCR2 [4] = molecular target: T2, CXCR2; experiment: Wash-resistant inhibition of CXCL8-mediated calcium flux after inhibitor washout, CXCR2 RBL cells; type: cell-based; settings: RBL cells stably transfected with CXCR2; 30 minutes incubation at 37°C with 0.4, 2, 10 µM, then washout; time points up to 12 h
Experimental: as §1, §2

[5] = system: isolated human neutrophils; experiment: Inhibition of CXCL8-mediated intracellular calcium release, isolated human neutrophils; type: cell-based; settings: Neutrophil; human neutrophils (Human PMNs); CXCL8 25 nM; mean ± SE, n = 4
Experimental: as §3, §4

CXCR1 [6] = molecular target: T1, CXCR1; experiment: Inhibition of CXCL8-mediated intracellular calcium release, RBL cells stably transfected with CXCR1; type: cell-based; settings: CXCL8 25 nM, mean ± SE, n = 4
Experimental: as §3, §4

[7] = Stability in human liver microsomes (NADPH-dependent); type: in vitro ADME
Source text: Liver microsomes are an in vitro model for in vivo metabolism and elimination of a drug by the liver (and gut) cytochrome P450 system. A compound's stability in liver microsomes in vitro is predictive of its metabolism and elimination in vivo. We examined the stability of SX-682 in liver microsomes together with several other cogeners to quantify the microsomal stability of SX-682 and identify potential structure-activity relationships (SAR) predictive of stability or instability (see Figure 5).
The compounds were incubated in duplicate with human liver microsomes at 37°C. The reaction contained microsomal protein in 100 mM potassium phosphate, 2 mM NADPH, 3 mM MgCl2, pH 7.4. A control was run for each compound omitting NADPH to detect NADPH-independent degradation. An aliquot was removed from each experimental and control reaction at 0, 10, 20, 30, and 60 minutes and mixed with an equal volume of ice-cold Stop Solution (0.3% acetic acid in acetonitrile containing haloperidol, diclofenac, or other internal standard). Stopped reactions were incubated for at least ten minutes at -20°C, and an additional volume of water was added. The samples were centrifuged to remove precipitated protein, and the supernatants were analyzed by LCMS/MS to quantitate the remaining compound. Data were converted to percent remaining by dividing by the time zero concentration value. Data were fit to a first-order decay model to determine half-life. Intrinsic clearance was calculated from the half-life and the protein concentrations: CLint = ln(2)/(t½ [microsomal protein]).

[8] = Stability in human plasma; type: in vitro ADME
Experimental: The in vitro stability of SX-682 and the cogeners of Metabolic Stability Example 1 (Figure 5) were further studied in human plasma. The reactions were initiated by the addition of 5 µL of a 500 µM DMSO stock solution to 495 µL of preheated plasma solution to yield a final concentration of 5 µM. The assays were performed in a heat block at 37°C and conducted in duplicate. Samples (50 µL) were taken at 0, 30, 60, 120, 240 min and added to 150 µL acetonitrile in order to deproteinize the plasma. The samples were subjected to vortex mixing for 1 min and then centrifugation for 15 min at 14,000 rpm. The clear supernatants were analyzed by LC-MS.
The in vitro plasma half life (t½) was calculated using the expression t½ = ln(2)/b, where b is the slope found in the linear fit of the natural logarithm of the fraction remaining of the parent compound vs. incubation time.

neutrophils [9] = experiment: Murine air-pouch model of inflammation; type: in vivo; settings: depending on the dose given
[10] = 37°C, 2 mM NADPH, pH 7.4, first-order decay model
[11] = 5 µM, incubation at 37°C, LC-MS/MS detection

inhibition of CXCL8-mediated intracellular calcium flux sustained after washout (CXCR1 [1])	IC50 (CXCR2 [2]) [nM]	inhibition of CXCL8-mediated intracellular calcium flux sustained after washout (CXCR2 [4])	IC50 [5] [nM]	IC50 (CXCR1 [6]) [nM]	fold larger half life than SX-671 or SX-576 [7] [fold]	half-life ([7]; 37°C, 2 mM NADPH, pH 7.4, first-order decay model, read-out: t½ (Half-life)) [min]	half-life at 5 µM ([8]; 5 µM, incubation at 37°C, LC-MS/MS detection, read-out: t½) [min]	t½ (Half-life) [7, 10] [min]	t½ [8, 11] [min]	fold reduction in plasma half-life ([8]; structural comparison with sulfur / F3CO-bearing cogeners) [fold]	SMILES	influx of neutrophils into the lungs (BALF) as compared to control rats treated with vehicle only (neutrophils [3])	inhibition of neutrophil chemotaxis, comparison of the two inhibitors tested (neutrophils [3]; SX-682 vs SX-576, each 1 mg/kg intravenously, ozone exposed rats)	inhibition of neutrophil influx into the BALF sustained after a single dose (neutrophils [3]; single dose of 1 mg/kg intravenously, ozone exposed rats) [h]	activity on neutrophils in vivo (neutrophils [9])
at least 12 hours	20 ± 2	at least 12 hours	55 ± 6	42 ± 3	6	325	693	–	–	–	O=C(Nc1ccc(F)cc1)c1cnc(SCc2cc(OC(F)(F)F)ccc2B(O)O)nc1 [SX-682, 2-(2-Boronic acid-5-trifluoromethoxy-benzylsulfanyl)-pyrimidine-5-carboxylic acid (4-fluoro-phenyl)-amide]	significantly decreased the influx of neutrophils	markedly more robust inhibition of neutrophil chemotaxis	24	–
–	–	–	–	–	–	–	–	50	533	–	O=C(Nc1ccc(F)cc1)c1ccc(SCc2cc(OC(F)(F)F)ccc2B(O)O)nc1 [SX-576, reference compound]	significantly decreased the influx of neutrophils	–	–	both inhibitory and agonist activity on neutrophils were achieved
–	–	–	–	–	–	–	–	405	113	5	O=C(Nc1ccc(F)cc1)c1ccc(SCc2ccccc2B(O)O)nc1 [SX-517]	–	–	–	both inhibitory and agonist activity on neutrophils were achieved
